The experiment addresses T1, STS (Homo sapiens, UniProt P08842).
T1 construct: expressed in transfected cells; host or cells: HEK-293 cells stably transfected with STS (G418 selection), obtained from Dr. Van Luu-The; used as freeze-thaw homogenate
T1 sequence (P08842 22-583): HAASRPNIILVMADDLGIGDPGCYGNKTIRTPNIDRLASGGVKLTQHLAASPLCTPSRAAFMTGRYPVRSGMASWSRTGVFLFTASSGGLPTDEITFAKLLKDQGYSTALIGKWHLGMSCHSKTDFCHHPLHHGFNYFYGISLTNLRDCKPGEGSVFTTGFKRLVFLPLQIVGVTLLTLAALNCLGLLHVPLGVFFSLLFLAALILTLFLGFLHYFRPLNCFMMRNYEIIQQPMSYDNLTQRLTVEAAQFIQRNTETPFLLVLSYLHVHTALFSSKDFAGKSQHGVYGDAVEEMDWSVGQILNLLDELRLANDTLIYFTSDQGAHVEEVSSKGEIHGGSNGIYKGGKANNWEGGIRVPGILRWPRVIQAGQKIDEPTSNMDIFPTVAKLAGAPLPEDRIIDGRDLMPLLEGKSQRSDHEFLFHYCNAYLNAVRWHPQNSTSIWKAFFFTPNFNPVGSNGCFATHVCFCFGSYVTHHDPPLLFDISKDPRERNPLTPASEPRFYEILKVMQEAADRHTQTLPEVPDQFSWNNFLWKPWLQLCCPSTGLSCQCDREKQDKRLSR
In words: STS inhibition of libraries 1-EO to 4-EO, homogenate of STS transfected HEK-293 cells. Type of experiment: biochemical. As to conditions: mean ± SEM, triplicate. The protocol: The enzymatic assay was performed using homogenate of STS transfected HEK-293 cells as the source of enzyme activity. The transformation of [^3H]-E1S into [^3H]-E1 was measured using scintillation counting of labeled E1S and E1 in the aqueous and organic phases, respectively. Newly synthesized sulfamate compounds were tested at two concentrations (0.1 μM and 1 μM). Libraries 1-EO and 2-EO were synthesized using the p- and m-benzamide spacers as 1st level of molecular diversity and the same wide variety of secondary amines as 2nd level of diversity (Table 2), which were chosen in a somewhat random fashion while including a different pattern, format and heteroatom. […] Compounds 1-EO-07, 1-EO-09 and 1-EO-10 represent a starting point for optimization, as they show more than 36% of inhibition when tested at a concentration of 0.1 μM. These compounds have relatively hydrophobic substituents compared to the rest of the library members. […] The average log P value for the rest of the library, excluding these three compounds, is 1.93.
This enzymatic assay was carried out according to a procedure previously described for the transformation of substrate [^3H]-E1S (100 μM) into [^3H]-E1 by homogenated HEK-293 cells over-expressing the enzyme activity.^56,73

SMILES strings stand for the structures. Values joined by “and” are separate entries in the source; they are usually repeats but may differ in a detail not shown here. Identical values can stand only once.

Take `NS(=O)(=O)Oc1ccc2c(c1)CN(C(=O)c1ccc(CN3CCOCC3)cc1)CC2` [1-EO-01]: the “STS inhibition (%)” value reads like this: (0.1 μM) 10.9 ± 3.5%; (1 μM) 50.6 ± 1.2%. The like results for `NS(=O)(=O)Oc1ccc2c(c1)CN(C(=O)c1ccc(CN3CCCCC3)cc1)CC2` [1-EO-02] were, in that order, 11.5 ± 2.4% and 38.3 ± 3.6%. Taken in the same sequence, the figures for `NS(=O)(=O)Oc1ccc2c(c1)CN(C(=O)c1ccc(CN3CCSCC3)cc1)CC2` [1-EO-03] were 32.3 ± 1.0% and 80.2 ± 0.9%. Taken in the same sequence, the figures for `CN1CCN(Cc2ccc(C(=O)N3CCc4ccc(OS(N)(=O)=O)cc4C3)cc2)CC1` [1-EO-04] were 2.9 ± 0.5% and 23.3 ± 1.3%.

Regarding `NS(=O)(=O)Oc1ccc2c(c1)CN(C(=O)c1ccc(CN3CCN(Cc4ccccc4)CC3)cc1)CC2` [1-EO-05], the “STS inhibition (%)” value runs as follows: (0.1 μM) 20.8 ± 3.7%; (1 μM) 75.8 ± 1.6%. With `NS(=O)(=O)Oc1ccc2c(c1)CN(C(=O)c1ccc(CN3CCN(c4ncccn4)CC3)cc1)CC2` [1-EO-06], the “STS inhibition (%)” value runs as follows: (0.1 μM) 14.7 ± 3.6%; (1 μM) 41.9 ± 0.8%. As for `NS(=O)(=O)Oc1ccc2c(c1)CN(C(=O)c1ccc(CN3CCC(Cc4ccccc4)CC3)cc1)CC2` [1-EO-07], the “STS inhibition (%)” value (1 μM) came to 81.3 ± 0.5%. On to `NS(=O)(=O)Oc1ccc2c(c1)CN(C(=O)c1ccc(CN3CCC(N4CCCCC4)CC3)cc1)CC2` [1-EO-08], for which the “STS inhibition (%)” value is, setting by setting: (0.1 μM) 8.5 ± 1.2%; (1 μM) 53.7 ± 4.7%. With `CCN(Cc1ccccc1)Cc1ccc(C(=O)N2CCc3ccc(OS(N)(=O)=O)cc3C2)cc1` [1-EO-09], the “STS inhibition (%)” value (1 μM) was found to be 83.6 ± 0.2% and the “STS inhibition (%)” value (1 μM, listed as 1-EO-9, 1 µM) is listed as 84%. Regarding `CCCN(CCC)Cc1ccc(C(=O)N2CCc3ccc(OS(N)(=O)=O)cc3C2)cc1` [1-EO-10], the “STS inhibition (%)” value (1 μM) worked out at 84.7 ± 0.2%. As for `NS(=O)(=O)Oc1ccc2c(c1)CN(C(=O)c1cccc(CN3CCOCC3)c1)CC2` [2-EO-01], the “STS inhibition (%)” value (0.1 μM) was 0.0 ± 4.7% and the “STS inhibition (%)” value (1 μM) worked out at 20.9 ± 4.4%. The like results for `NS(=O)(=O)Oc1ccc2c(c1)CN(C(=O)c1cccc(CN3CCCCC3)c1)CC2` [2-EO-02] were, in that order, 1.0 ± 5.1% and 11.9 ± 2.6%. The like results for `NS(=O)(=O)Oc1ccc2c(c1)CN(C(=O)c1cccc(CN3CCSCC3)c1)CC2` [2-EO-03] were, in that order, 2.3 ± 0.1% and 39.6 ± 2.8%.

For the compound `CN1CCN(Cc2cccc(C(=O)N3CCc4ccc(OS(N)(=O)=O)cc4C3)c2)CC1` [2-EO-04], the “STS inhibition (%)” value is, setting by setting: (0.1 μM) 0.0 ± 12.2%; (1 μM) 12.6 ± 2.3%.

Turning to `NS(=O)(=O)Oc1ccc2c(c1)CN(C(=O)c1cccc(CN3CCN(Cc4ccccc4)CC3)c1)CC2` [2-EO-05], the “STS inhibition (%)” value is, setting by setting: (0.1 μM) 0.0 ± 3.1%; (1 μM) 23.7 ± 0.6%. The like results for `NS(=O)(=O)Oc1ccc2c(c1)CN(C(=O)c1cccc(CN3CCN(c4ncccn4)CC3)c1)CC2` [2-EO-06] were, in that order, 1.6 ± 1.6% and 24.4 ± 0.4%. The like results for `NS(=O)(=O)Oc1ccc2c(c1)CN(C(=O)c1cccc(CN3CCC(Cc4ccccc4)CC3)c1)CC2` [2-EO-07] were, in that order, 1.4 ± 0.6% and 41.9 ± 2.7%.

As for `NS(=O)(=O)Oc1ccc2c(c1)CN(C(=O)c1cccc(CN3CCC(N4CCCCC4)CC3)c1)CC2` [2-EO-08], the “STS inhibition (%)” value is on record as 0.0 ± 2.4% (0.1 μM) and 8.0 ± 1.1% (1 μM). In the case of `CCN(Cc1ccccc1)Cc1cccc(C(=O)N2CCc3ccc(OS(N)(=O)=O)cc3C2)c1` [2-EO-09], the “STS inhibition (%)” value (0.1 μM) was 17% and 17.3 ± 2.5%; the “STS inhibition (%)” value (1 μM) is listed as 69.0 ± 0.0%.

For `CCCN(CCC)Cc1cccc(C(=O)N2CCc3ccc(OS(N)(=O)=O)cc3C2)c1` [2-EO-10], the “STS inhibition (%)” value came out at 8.3 ± 0.0% (0.1 μM) and 54.8 ± 1.2% (1 μM). The like results for `CCCN(Cc1ccccc1)Cc1ccc(C(=O)N2CCc3ccc(OS(N)(=O)=O)cc3C2)cc1` [3-EO-01] were, in that order, 64.8 ± 3.8% and 94.3 ± 0.3%. In the case of `NS(=O)(=O)Oc1ccc2c(c1)CN(C(=O)c1ccc(CN(CCO)Cc3ccccc3)cc1)CC2` [3-EO-02], the “STS inhibition (%)” value by setting is: (0.1 μM) 27.9 ± 2.6%; (1 μM) 78.0 ± 1.1%. The like results for `NS(=O)(=O)Oc1ccc2c(c1)CN(C(=O)c1ccc(CN(CCCO)Cc3ccccc3)cc1)CC2` [3-EO-03] were, in that order, 5.7 ± 4.4% and 64.3 ± 1.6%. Taken in the same sequence, the figures for `CN(C)CCN(Cc1ccccc1)Cc1ccc(C(=O)N2CCc3ccc(OS(N)(=O)=O)cc3C2)cc1` [3-EO-04] were 13.9 ± 4.8% and 57.8 ± 3.4%. The like results for `CN(C)CCCN(Cc1ccccc1)Cc1ccc(C(=O)N2CCc3ccc(OS(N)(=O)=O)cc3C2)cc1` [3-EO-05] were, in that order, 16.2 ± 4.6% and 61.6 ± 4.9%.

Regarding `CN(CCN1CCCCC1)Cc1ccc(C(=O)N2CCc3ccc(OS(N)(=O)=O)cc3C2)cc1` [3-EO-06], the “STS inhibition (%)” value (0.1 μM) was determined as 0.3 ± 1.7% and the “STS inhibition (%)” value (1 μM) was 26.8 ± 13.5%. The like results for `CN(CCCN1CCCCC1)Cc1ccc(C(=O)N2CCc3ccc(OS(N)(=O)=O)cc3C2)cc1` [3-EO-07] were, in that order, 17.4 ± 12.3% and 40.7 ± 8.6%.

As to `CN(C)CCN(CCN(C)C)Cc1ccc(C(=O)N2CCc3ccc(OS(N)(=O)=O)cc3C2)cc1` [3-EO-08], the “STS inhibition (%)” value (0.1 μM) is 3.8 ± 9.6% and the “STS inhibition (%)” value (1 μM) worked out at 15.9 ± 21.5%. In the case of `CC(C)CCN(CCC(C)C)Cc1ccc(C(=O)N2CCc3ccc(OS(N)(=O)=O)cc3C2)cc1` [3-EO-09], the “STS inhibition (%)” value (0.1 μM) was 47.0 ± 13.0% and the “STS inhibition (%)” value (1 μM) was determined as 90.8 ± 1.7%.

As for `NS(=O)(=O)Oc1ccc2c(c1)CN(C(=O)c1ccc(CN3CCc4ccccc4C3)cc1)CC2` [3-EO-10], the “STS inhibition (%)” value (0.1 μM) amounted to 56.0 ± 7.2% and the “STS inhibition (%)” value (1 μM) is given as 83.0 ± 11.9%. Regarding `NS(=O)(=O)Oc1ccc2c(c1)CN(C(=O)c1ccc(CN(Cc3ccccc3)Cc3ccco3)cc1)CC2` [3-EO-11], the “STS inhibition (%)” value was 91% and 90.8 ± 2.6% (0.1 μM); 98.2 ± 0.4% (1 μM).

In the case of `CCN(Cc1ccc(C(=O)N2CCc3ccc(OS(N)(=O)=O)cc3C2)cc1)Cc1cccc(Br)c1` [3-EO-12], the “STS inhibition (%)” value reads like this: (0.1 μM) 80% and 80.2 ± 8.0%; (1 μM) 97.2 ± 0.6%.

Turning to `CCN(Cc1ccc(Br)cc1)Cc1ccc(C(=O)N2CCc3ccc(OS(N)(=O)=O)cc3C2)cc1` [3-EO-13], the “STS inhibition (%)” value runs as follows: (0.1 μM) 78% and 78.2 ± 1.7%; (1 μM) 95.9 ± 0.6%. Regarding `CCN(Cc1ccc(C(=O)N2CCc3ccc(OS(N)(=O)=O)cc3C2)cc1)Cc1ccccn1` [3-EO-14], the “STS inhibition (%)” value was found to be 42.5 ± 3.5% (0.1 μM) and 87.7 ± 0.7% (1 μM).

For `CCN(Cc1ccc(C(=O)N2CCc3ccc(OS(N)(=O)=O)cc3C2)cc1)Cc1cccnc1` [3-EO-15], the “STS inhibition (%)” value is, setting by setting: (0.1 μM) 35.7 ± 4.3%; (1 μM) 85.2 ± 1.7%. The like results for `CCN(Cc1ccncc1)Cc1ccc(C(=O)N2CCc3ccc(OS(N)(=O)=O)cc3C2)cc1` [3-EO-16] were, in that order, 47.0 ± 1.8% and 86.6 ± 1.8%.

The values are drawn from patent publication US9708305B2, “Substituted 1,2,3,4-tetrahydroisoquinoline derivatives for the treatment of hormone-dependent diseases” (UNIVERSITÉ LAVAL, priority 2013, dated 2017).
